Test results published in publication PMC11571215, “Optimization of Antiproliferative Properties of Triimine Copper(II) Complexes” (Journal of Medicinal Chemistry, 2024).

Key:
[1] = Stability in solution by UV-vis spectrophotometry; format: physicochemical; conditions: c = 25 μM, spectra every 4 h for 72 h
Procedure: The stability of Cu1a-d and Cu2a-d was assessed using a spectrophotometric method. Absorption spectra of the Cu(II) complexes were collected every 4 h for 72 h in DMSO and phosphate-buffered saline (PBS) solutions (c = 25 μM) (see Figure S6 and Table S9 in ESI). The diluted solutions in a water-based medium were prepared from concentrated (50 mM) stock solutions in DMSO. […] In contrast, Cu(II) complexes with dtpy-based ligands (Cu2a–d) decomposed within a few minutes in DMSO, showing UV–vis spectra almost overlapping with those of the free ligands (Figure S7). […] In PBS, compounds Cu2a–d tended to aggregate rapidly due to the release of the organic ligand, which is insoluble in water.
Infrared spectra were performed with the KBr technique on a Nicolet iS5 FT-IR spectrophotometer in the range of 4000–400 cm^–1. Elemental analyses (C, H, N) were recorded on a Perkin–Elemer CHN–2400 analyzer. HR-ESI-MS analyses were performed on a maXis Impact Q-TOF mass spectrometer (Bruker Daltonics) or a Xevo G2 Q-TOF mass spectrometer (Waters Corporation, USA), both with an ESI ion source operating in positive-ion mode. Samples were diluted in LC-MS grade acetonitrile. The accurate mass and composition for the molecular ion adducts were calculated using Data Analysis 4.1 software (Bruker, Germany) or MassLynx software (Waters). […] The eluted compounds were monitored in the range 190–400 nm. […]

[2] = tested on: HCT116-DoxR cells; assay: Cellular senescence (beta-galactosidase, flow cytometry); format: cell-based, human; conditions: 48 h at IC50, vs 0.1% DMSO
Procedure: The percentage of senescent cells was assessed using the Senescence Assay Kit (Abcam), enabling the quantification of beta-galactosidase activity through flow cytometry. […] A 0.1% (v/v) DMSO solution served as vehicle control, and Dox and Cis were used as positive controls.
In this assay, a senescence assay kit (Beta Galactosidase, Fluorescence) (ab228562; Abcam, UK) was used. HCT116-DoxR cells were seeded in 24-well plates at a density of 5 × 10^5 cells/well and incubated for 24 h, at the conditions mentioned before. […] Additionally, 0.1% (v/v) DMSO was used as a vehicle control, and 6 μM Dox and 5 μM Cis were used as positive controls. At the end of the incubation period, the medium was removed, and 500 μL of DMEM with 1.5 μL of Senescence dye was added to each well. The plates were incubated for an additional 1–2 h at 37 °C. Subsequently, the well contents were removed, and the cells were washed twice with Wash Buffer (provided by the kit). The cells were trypsinized with TrypLE Express and then centrifuged for 5 min at 500 × g. After centrifugation, the cells were washed with the wash buffer, centrifuged, and resuspended again in 500 μL of Wash Buffer. The samples were subsequently analyzed by an Attune acoustic focusing flow cytometer (Life Technologies, Carlsbad, USA), and the results were analyzed by the respective software (Attune Cytometric software).

[3] = tested on: calf-thymus DNA (ctDNA); assay: UV-vis absorption titration with ctDNA; format: binding; conditions: hyperchromic effect at ∼350 nm
Procedure: For both Cu(II) complexes, the addition of DNA results in a gradual increase in the absorption intensity of the band at ∼350 nm, while the band position remains the same (Figure 14).
These values fall in the range reported previously for related Cu(II) complex with 4′-((naphthalen-2-yl)methoxy)-2,2′:6′,2″-terpyridine[21] that was proposed as an “outside binder”.
Absorption titration experiments were conducted by maintaining the complex concentration constant (25 μM) and varying the concentration of ctDNA (0–100 μM). Blank ctDNA samples were used as a reference.

[4] = tested on: HCT116-DoxR 3D spheroids; assay: MTS cell viability assay in 3D tumor spheroids; format: cell-based, human; conditions: spheroids with 6 days of growth, 48 h of exposure
Procedure: The research on tumor microenvironment (TME) has recently been gaining attention due to its important role in tumor growth, progression, and response to therapy.[57]−[60] Because of this, the development of 3D cancer models that mimic the interactions in the TME and the tumor structure and complexity is of great relevance to cancer research and drug development. […] The MTS assay was performed inHCT116-DoxR 3D spheroids with 6 days of growth (Figure S15 in ESI), followed by exposure to the complexes for 48 h. The results of cell viabilities and respective relative IC50 values calculated are provided in Figure 4 and Table 5, respectively.
HCT116-DoxR cells were seeded at 5 × 10^4 cells/mL in super low Attachment 96-well plates (NunclonSphera U-Shaped-Bottom Microplate, Thermo Fisher Scientific, Waltham, MA, USA) and incubated at 37 °C in a humidified atmosphere with 5% (v/v) CO2, to allow spheroids formation and growth.[60],[105] To perform the cell viability study, two methods were used: the MTS assay and the CellTox assay.
For MTS assay, HCT116DoxR spheroids grown for 6 to 8 days were used. […] The spheroids were further incubated for 4 h and subsequently transferred the medium to a 96-well flat-bottom plate for analysis using the Tecan Infinite M200 microplate reader (Tecan, Männedorf, Switzerland).

Structure (SMILES): [Cl][Cu-3]12([Cl])[n+]3ccccc3-c3cc(-c4ccc5ccccc5c4)cc([n+]31)-c1cccc[n+]12 [Cu1b]
- stability/solubility in PBS [1]: no solubility issues were observed
- senescent cells [2]: highest quantity of cells in senescence
- mode of interaction with DNA [3]: nonintercalative interactions with DNA, most likely via groove binding
- IC50 [4]: 33.9 ± 0.4 µM

Structure (SMILES): [Cl][Cu-3]12([Cl])[n+]3ccccc3-c3cc(-c4cccc5ccccc45)cc([n+]31)-c1cccc[n+]12 [Cu1a]
- stability/solubility in PBS [1]: no solubility issues were observed
- senescent cells [2]: increase in the percentage of senescent cells
- mode of interaction with DNA [3]: nonintercalative interactions with DNA, most likely via groove binding
- IC50 [4]: 10.1 ± 0.22 µM
